Experimental data reported in patent publication US11077098B2, “Opioid receptor ligands and methods of using and making same” (TREVENA, INC., priority 2011, dated 2021).

Test system: mice
Assay: hot plate assay for antinociception in mice
Type: in vivo, mouse
Conditions: for analgesic effect in the mouse hot plate assay compared to morphine / ED50: SC; for ED50: tested thirty minutes after drug administration
Description: The hot plate assay is adapted from the procedure originally described by O'Callaghan and Holtzman (JPET, 192, 497, 1975) and is commonly used to determine the potential analgesic efficacy of opioid agonists. The antinociceptive effect of the composition(s) described herein in the hot plate is expressed in % MPE (Maximum Possible Effect).
Rats (175-250 g) or mice (20-30 g) acclimated to the vivarium for at least 48 hr prior to behavioral testing. Test drugs were administered by the subcutaneous (SC) route. Animals were placed on the hot plate, which the temperature was set at 50-56° C., depending on the in vitro potency of the compound. A cutoff time of 30-60 seconds was used depending on the temperature of the hot plate so that the paws of the animal displaying analgesia, was not damaged by the heat stimulus. The cutoff time was considered a 100% response to the thermal insult. Prior to drug treatment, each animal was tested to determine the baseline response. Thirty minutes after drug administration, animals were re-tested. Dose response experiments were performed to evaluate the potency of the test compound when various doses were administered at the point when maximal analgesia is observed.
The % MPE was calculated according to the following formula: % MPE=[(Post drug latency−baseline latency)/(60 or 30−baseline latency)]×100
ED50 values were calculated from the mean % MPE values for each group using log dose-response curves by least-squares regression analysis.

c1ccc(CNCC[C@@]2(c3ccccn3)CCOC3(CCCC3)C2)cc1 [Compound 28] was tested. Which “analgesic effect in the mouse hot plate assay compared to morphine” value did it give?
Its value is “more robust analgesic effect”.

And the ED50 (mouse hot plate)?
The ED50 was 1.2 mg/kg.

Which “% MPE” value (mouse hot plate, at 10 mg/kg SC) does the source give for Fc1ccc([C@]2(CCNCc3ccccc3)CCOC3(CCCC3)C2)cc1 [Compound 81, benzyl({2-[(9R)-9-(4-fluorophenyl)-6-oxaspiro[4.5]decan-9-yl]ethyl})amine] here?
The value was 100% at 10.

How did the “analgesic effect in the mouse hot plate assay compared to morphine” value turn out when Cc1cccc(CNCC[C@@]2(c3ccc(F)cc3)CCOC3(CCCC3)C2)c1 [Compound 122, {2-[(9R)-9-(4-fluorophenyl)-6-oxaspiro[4.5]decan-9-yl]ethyl}[(3-methylphenyl)methyl]amine] was run?
The value was “more robust analgesic effect”.

What about the ED50 (mouse hot plate) of the same compound?
Its ED50 is 1.1 mg/kg.

With Cc1ccc(CNCC[C@@]2(c3ccc(F)cc3)CCOC3(CCCC3)C2)s1 [Compound 145] as the compound, how does the ED50 (mouse hot plate) read?
Its ED50 is 5.9 mg/kg.

For CN1CC[C@]23c4c5ccc(O)c4O[C@H]2[C@@H](O)C=C[C@H]3[C@H]1C5 [Morphine, reference compound], which “efficacy in the mouse hot plate” value (at a dose of 10 mg/kg SC) is on record?
The value was “full efficacy”.

And the ED50 (mouse hot plate)?
The ED50 was 3.8 mg/kg.
